Measurements from PubChem BioAssay (NCI).
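Interpolation was linear, between the two tested concentrations surrounding the appropriate level; five concentrations were tested over 48 hours in 96-well plates. TGI: concentration producing complete growth inhibition.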

What was measured:
Experiment in all cases: inhibition of tumour cell growth, NCI panel, 48 h
786-0 renal = test system: 786-0 renal
A498 renal = test system: A498 renal
ACHN renal = test system: ACHN renal
BT-549 breast = test system: BT-549 breast
HCT-15 colon = test system: HCT-15 colon
HOP-92 NSCLC = test system: HOP-92 NSCLC
HS 578T breast = test system: HS 578T breast
MDA-MB-435 = test system: MDA-MB-435
NCI-H226 lung = test system: NCI-H226 lung
NCI-H23 lung = test system: NCI-H23 lung
NCI-H522 lung = test system: NCI-H522 lung
OVCAR-5 ovarian = test system: OVCAR-5 ovarian
SF-268 CNS = test system: SF-268 CNS
SK-OV-3 ovarian = test system: SK-OV-3 ovarian
SN12C renal = test system: SN12C renal
SW-620 colon = test system: SW-620 colon
T-47D breast = test system: T-47D breast
TK-10 renal = test system: TK-10 renal
U251 CNS = test system: U251 CNS

Compound | TGI (786-0 renal) [µM] | TGI (A498 renal) [µM] | TGI (ACHN renal) [µM] | TGI (BT-549 breast) [µM] | TGI (HCT-15 colon) [µM] | TGI (HOP-92 NSCLC) [µM] | TGI (HS 578T breast) [µM] | TGI (MDA-MB-435) [µM] | TGI (NCI-H226 lung) [µM] | TGI (NCI-H23 lung) [µM] | TGI (NCI-H522 lung) [µM] | TGI (OVCAR-5 ovarian) [µM] | TGI (SF-268 CNS) [µM] | TGI (SK-OV-3 ovarian) [µM] | TGI (SN12C renal) [µM] | TGI (SW-620 colon) [µM] | TGI (T-47D breast) [µM] | TGI (TK-10 renal) [µM] | TGI (U251 CNS) [µM]
C=CCc1oc(C)nc1CCCC | > 100 | > 100 | > 100 | > 100 | > 100 | > 100 | > 100 | > 100 | > 100 | > 100 | > 100 | > 100 | > 100 | > 100 | > 100 | > 100 | > 100 | > 100 | > 100
COC(=O)c1sc2c(c1C(=O)OC)C(=NC(C)(C)C)SC2=NC(C)(C)C | 30.4 | 32.5 | 33.1 | 35.4 | 34.3 | 35.4 | 57.5 | 34.6 | 34.9 | 34.5 | 37.5 | 37.2 | 36 | 55.7 | 34.5 | 35.4 | 31.4 | 33.2 | 32.3
COc1ccc2c(C)cc(N/N=C/c3ccc(C)s3)nc2c1 | 31.6 | 52.9 | > 52.4 | 62.8 | 41.3 | > 51.6 | > 90.9 | > 52.4 | 51.7 | > 48.8 | > 100 | 30.2 | > 100 | 43.6 | 37.3 | > 48.4 | 26 | > 54.3 | > 48
COc1ccc(C[C@@H](C(=O)O[C@H](C)[C@H](NC(=O)[C@@H](CC(C)C)N(C)C(=O)C2CCCN2C(=O)[C@H](C)O)C(=O)N2CCCCNC(=O)[C@@H](C)C(=O)[C@H](C(C)C)OC(=O)C[C@H](O)[C@H]2CC(C)C)N(C)C(C)=O)cc1 (stereo partly specified) | > 50 | 43.6 | > 50 | > 50 | > 50 | > 50 | 34.8 | > 50 | 49.5 | 42.5 | > 50 | > 50 | > 50 | > 50 | > 50 | 28.4 | > 50 | > 50 | 21.8
COc1ccc(-c2c(-c3ccccc3)c(C)nc3[nH]c(=S)[nH]c(=S)c23)cc1OC | > 100 | > 100 | > 100 | > 100 | > 100 | > 100 | > 100 | 74.1 | > 100 | > 100 | 85.8 | > 100 | > 100 | > 100 | 83.3 | > 100 | > 100 | > 100 | > 100
CNn1c(-c2ccc(C)cc2)n[nH]c1=O | > 100 | > 100 | > 100 | > 100 | > 100 | > 100 | > 100 | > 100 | > 100 | > 100 | > 100 | > 100 | > 100 | > 100 | > 100 | > 100 | > 100 | > 100 | > 100
O=C1C(c2c(O)[nH]c3ccc(Cl)cc23)=Nc2ccccc21 | 3.9 | 13.1 | 20.3 | > 100 | > 100 | 29.5 | 24.1 | > 100 | 37 | 40.1 | > 100 | > 28.1 | 33.6 | 11.2 | > 100 | > 100 | > 100 | 18.8 | 17.6
O=C1N/C(=N\N=C\c2ccccc2)C2(CCCCC2)O1 | > 100 | > 100 | > 100 | > 100 | > 100 | > 100 | > 100 | > 100 | > 100 | > 100 | > 100 | > 100 | > 100 | > 100 | > 100 | > 100 | > 100 | > 100 | > 100
Cc1nc2c(O)c3c(c(O)c2nc1C)C1C=CC3CC1 | 27.6 | 81.5 | 28.5 | 30.4 | 34.8 | 7.75 | 78.3 | 6.2 | 56.2 | 26.5 | 37.5 | 34.9 | 32.9 | 55.2 | 27.4 | 30.3 | 7 | 40.8 | 21.6
